System: RNAi-treated eri-1 (mg366) nematodes
Assay: RNAi screening of olfactory receptor genes: chemotaxis assay of RNAi-treated nematodes to odorants
Format: in vivo, Caenorhabditis elegans
Settings: repellent or high concentration of attractant
Procedure, shortened: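 eri-1 (mg366) worms knocked down by feeding RNAi (Ahringer library) on IPTG/ampicillin NGM plates with E. coli for 4 days, then tested for chemotaxis, 30–50 worms per assay. Odorants at 1 μl of 10^−3 or 10^−4 dilution, or 1 and 5 μl undiluted. Hits scored by z score, thresholds ±1.96 (P<0.05) or ±0.96.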

CCCCCCCC(C)=O [nonanone]
chemotaxis index (Control nematodes): −0.91 ± 0.009
chemotaxis index (srh-4 RNAi-treated nematodes): −0.87
chemotaxis index (srh-7 RNAi-treated nematodes): −0.78
chemotaxis index (srh-8 RNAi-treated nematodes): −0.86
chemotaxis index (srh-10 RNAi-treated nematodes): −0.88
chemotaxis index (srh-11 RNAi-treated nematodes): −0.65
chemotaxis index (srh-15 RNAi-treated nematodes): −0.25
chemotaxis index (srh-16 RNAi-treated nematodes): −0.63
chemotaxis index (srh-18 RNAi-treated nematodes): −0.26
chemotaxis index (srh-19 RNAi-treated nematodes): −0.80
chemotaxis index (srh-22 RNAi-treated nematodes): −0.89
chemotaxis index (srh-23 RNAi-treated nematodes): −0.77
chemotaxis index (srh-24 RNAi-treated nematodes): −0.79
chemotaxis index (srh-25 RNAi-treated nematodes): −0.06
chemotaxis index (srh-27 RNAi-treated nematodes): −0.79
chemotaxis index (srh-28 RNAi-treated nematodes): −0.71
chemotaxis index (srh-36 RNAi-treated nematodes): −0.57
chemotaxis index (srh-37 RNAi-treated nematodes): −0.89
chemotaxis index (srh-39 RNAi-treated nematodes): −0.90
chemotaxis index (srh-40 RNAi-treated nematodes): −0.83
chemotaxis index (srh-41 RNAi-treated nematodes): −0.62
chemotaxis index (srh-44 RNAi-treated nematodes): −0.58
chemotaxis index (srh-45 RNAi-treated nematodes): −0.91
chemotaxis index (srh-46 RNAi-treated nematodes): −0.87
chemotaxis index (srh-48 RNAi-treated nematodes): −0.79
chemotaxis index (srh-49 RNAi-treated nematodes): −0.91
chemotaxis index (srh-50 RNAi-treated nematodes): −0.96
chemotaxis index (srh-51 RNAi-treated nematodes): −0.90
chemotaxis index (srh-52 RNAi-treated nematodes): −0.85
chemotaxis index (srh-55 RNAi-treated nematodes): −0.96
chemotaxis index (srh-59 RNAi-treated nematodes): −0.79
chemotaxis index (srh-60 RNAi-treated nematodes): −0.83
chemotaxis index (srh-61 RNAi-treated nematodes): −0.68
chemotaxis index (srh-67 RNAi-treated nematodes): −0.61
chemotaxis index (srh-68 RNAi-treated nematodes): −0.65
chemotaxis index (srh-69 RNAi-treated nematodes): −0.84
chemotaxis index (srh-70 RNAi-treated nematodes): −0.81
chemotaxis index (srh-71 RNAi-treated nematodes): −0.80
chemotaxis index (srh-72 RNAi-treated nematodes): −0.87
chemotaxis index (srh-74 RNAi-treated nematodes): −0.96
chemotaxis index (srh-75 RNAi-treated nematodes): −0.86
chemotaxis index (srh-77 RNAi-treated nematodes): −0.74
chemotaxis index (srh-79 RNAi-treated nematodes): −0.61
chemotaxis index (srh-80 RNAi-treated nematodes): −0.81
chemotaxis index (srh-82 RNAi-treated nematodes): −0.96
chemotaxis index (srh-83 RNAi-treated nematodes): −0.70
chemotaxis index (srh-97 RNAi-treated nematodes): −0.66
chemotaxis index (srh-99 RNAi-treated nematodes): −0.82
chemotaxis index (srh-100 RNAi-treated nematodes): −0.48
chemotaxis index (srh-104 RNAi-treated nematodes): −0.71
chemotaxis index (srh-105 RNAi-treated nematodes): −0.80
chemotaxis index (srh-109 RNAi-treated nematodes): −0.84
chemotaxis index (srh-111 RNAi-treated nematodes): −0.71
chemotaxis index (srh-113 RNAi-treated nematodes): −0.91
chemotaxis index (srh-115 RNAi-treated nematodes): −0.75
chemotaxis index (srh-116 RNAi-treated nematodes): −0.69
chemotaxis index (srh-118 RNAi-treated nematodes): −0.89
chemotaxis index (srh-119 RNAi-treated nematodes): −0.84
chemotaxis index (srh-120 RNAi-treated nematodes): −0.68
chemotaxis index (srh-122 RNAi-treated nematodes): −0.84
chemotaxis index (srh-123 RNAi-treated nematodes): −0.90
chemotaxis index (srh-125 RNAi-treated nematodes): −0.77
chemotaxis index (srh-128 RNAi-treated nematodes): −0.89
chemotaxis index (srh-129 RNAi-treated nematodes): −0.90
chemotaxis index (srh-130 RNAi-treated nematodes): −0.94
chemotaxis index (srh-131 RNAi-treated nematodes): −0.45
chemotaxis index (srh-132 RNAi-treated nematodes): −0.84
chemotaxis index (srh-139 RNAi-treated nematodes): −0.91
chemotaxis index (srh-140 RNAi-treated nematodes): −0.80
chemotaxis index (srh-141 RNAi-treated nematodes): −0.94
chemotaxis index (srh-142 RNAi-treated nematodes): −0.94
chemotaxis index (srh-145 RNAi-treated nematodes): −0.44
chemotaxis index (srh-148 RNAi-treated nematodes): −0.78
chemotaxis index (srh-154 RNAi-treated nematodes): −0.58
chemotaxis index (srh-159 RNAi-treated nematodes): −0.48
chemotaxis index (srh-165 RNAi-treated nematodes): −0.40
chemotaxis index (srh-166 RNAi-treated nematodes): −1.00
chemotaxis index (srh-167 RNAi-treated nematodes): −1.00
chemotaxis index (srh-169 RNAi-treated nematodes): −0.92
chemotaxis index (srh-174 RNAi-treated nematodes): −0.92
chemotaxis index (srh-179 RNAi-treated nematodes): −0.97
chemotaxis index (srh-182 RNAi-treated nematodes): −0.98
chemotaxis index (srh-186 RNAi-treated nematodes): −0.93
chemotaxis index (srh-190 RNAi-treated nematodes): −1.00
chemotaxis index (srh-193 RNAi-treated nematodes): −0.84
chemotaxis index (srh-195 RNAi-treated nematodes): −0.98
chemotaxis index (srh-201 RNAi-treated nematodes): −0.97
chemotaxis index (srh-203 RNAi-treated nematodes): −1.00
chemotaxis index (srh-204 RNAi-treated nematodes): −1.00
chemotaxis index (srh-206 RNAi-treated nematodes): −1.00
chemotaxis index (srh-207 RNAi-treated nematodes): −1.00
chemotaxis index (srh-208 RNAi-treated nematodes): −0.82
chemotaxis index (srh-209 RNAi-treated nematodes): −0.84
chemotaxis index (srh-210 RNAi-treated nematodes): −0.66
chemotaxis index (srh-214 RNAi-treated nematodes): −0.96
chemotaxis index (srh-216 RNAi-treated nematodes): −0.83
chemotaxis index (srh-217 RNAi-treated nematodes): −0.44
chemotaxis index (srh-220 RNAi-treated nematodes): −0.28
chemotaxis index (srh-222 RNAi-treated nematodes): −0.82
chemotaxis index (srh-223 RNAi-treated nematodes): −0.74
